Test results as given in the supplement of paper PMC6125532.
In brackets after ≈: the same amount, converted by molar mass.

Key:
[1] = test system: Mycobacterium tuberculosis CRY-28
Method: (§1)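 Resazurin microtiter assay (REMA) MICs of anti-TB drugs against 19 EQA Mycobacterium tuberculosis strains (clinical or proficiency isolates plus H37Rv). Drugs were tested in doubling dilutions. Each value is the consensus of two measurements; where they disagreed the lower value was taken.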

[2] = test system: Mycobacterium tuberculosis CRY-23
Method: as §1

[3] = test system: Mycobacterium tuberculosis CRY-19
Method: as §1

[4] = test system: Mycobacterium tuberculosis CRY-2; CRY-25
Method: as §1

[5] = test system: Mycobacterium tuberculosis CRY-12; CRY-24
Method: as §1

[6] = test system: Mycobacterium tuberculosis CRY-14
Method: as §1

[7] = test system: Mycobacterium tuberculosis CRY-5; CRY-10
Method: as §1

[8] = test system: Mycobacterium tuberculosis CRY-9; CRY-22
Method: as §1

[9] = test system: Mycobacterium tuberculosis CRY-7; CRY-18
Method: as §1

[10] = test system: Mycobacterium tuberculosis CRY-16
Method: as §1

[11] = test system: Mycobacterium tuberculosis CRY-4; CRY-30
Method: as §1

[12] = test system: Mycobacterium tuberculosis CRY-3; CRY-11
Method: as §1

[13] = test system: Mycobacterium tuberculosis CRY-27
Method: as §1

[14] = test system: Mycobacterium tuberculosis CRY-6; CRY-29
Method: as §1

[15] = test system: Mycobacterium tuberculosis CRY-15; CRY-21
Method: as §1

[16] = test system: Mycobacterium tuberculosis CRY-1; CRY-17
Method: as §1

[17] = test system: Mycobacterium tuberculosis CRY-8; CRY-13
Method: as §1

[18] = test system: Mycobacterium tuberculosis CRY-26
Method: as §1

[19] = test system: Mycobacterium tuberculosis CRY-20
Method: as §1

MIC (REMA) [1] | MIC (REMA) [2] | MIC (REMA) [3] | MIC (REMA) [4] | MIC (REMA) [5] | MIC (REMA) [6] | MIC (REMA) [7] | MIC (REMA) [8] | MIC (REMA) [9] | MIC (REMA) [10] | MIC (REMA) [11] | MIC (REMA) [12] | MIC (REMA) [13] | MIC (REMA) [14] | MIC (REMA) [15] | MIC (REMA) [16] | MIC (REMA) [17] | MIC (REMA) [18] | MIC (REMA) [19] | SMILES
0.015 µg/mL (≈ 0.027 µM) | 0.008 µg/mL (≈ 0.0144 µM) | 0.015 µg/mL (≈ 0.027 µM) | 0.06 µg/mL (≈ 0.108 µM) | 0.5 µg/mL (≈ 0.9 µM) | ≤ 0.004 µg/mL | 0.015 µg/mL (≈ 0.027 µM) | 0.25 µg/mL (≈ 0.45 µM) | 0.06 µg/mL (≈ 0.108 µM) | 0.03 µg/mL (≈ 0.054 µM) | 0.015 µg/mL (≈ 0.027 µM) | 0.12 µg/mL (≈ 0.216 µM) | 0.06 µg/mL (≈ 0.108 µM) | 0.03 µg/mL (≈ 0.054 µM) | 2 µg/mL (≈ 3.6 µM) | 0.06 µg/mL (≈ 0.108 µM) | 0.06 µg/mL (≈ 0.108 µM) | 0.03 µg/mL (≈ 0.054 µM) | 0.03 µg/mL (≈ 0.054 µM) | COc1nc2ccc(Br)cc2cc1[C@@H](c1ccccc1)[C@@](O)(CCN(C)C)c1cccc2ccccc12 [Bedaquiline]
 | 0.008 µg/mL (≈ 0.0169 µM) |  | 0.12 µg/mL (≈ 0.253 µM) |  | 0.03 µg/mL (≈ 0.0634 µM) | 0.06 µg/mL (≈ 0.127 µM) | 1 µg/mL (≈ 2.11 µM) |  | 0.12 µg/mL (≈ 0.253 µM) | 0.03 µg/mL (≈ 0.0634 µM) | 0.12 µg/mL (≈ 0.253 µM) |  | 0.06 µg/mL (≈ 0.127 µM) | 1 µg/mL (≈ 2.11 µM) |  | 0.06 µg/mL (≈ 0.127 µM) | 0.06 µg/mL (≈ 0.127 µM) |  | CC(C)/N=c1\cc2n(-c3ccc(Cl)cc3)c3ccccc3nc-2cc1Nc1ccc(Cl)cc1 [Clofazimine]
0.008 µg/mL (≈ 0.015 µM) | 0.03 µg/mL (≈ 0.0561 µM) | 0.015 µg/mL (≈ 0.0281 µM) | 0.03 µg/mL (≈ 0.0561 µM) | 0.03 µg/mL (≈ 0.0561 µM) | 0.015 µg/mL (≈ 0.0281 µM) | 0.125 µg/mL (≈ 0.234 µM) | 2 µg/mL (≈ 3.74 µM) | 0.06 µg/mL (≈ 0.112 µM) | 0.03 µg/mL (≈ 0.0561 µM) | 0.03 µg/mL (≈ 0.0561 µM) | 0.06 µg/mL (≈ 0.112 µM) | 0.25 µg/mL (≈ 0.468 µM) | 0.015 µg/mL (≈ 0.0281 µM) | 0.125 µg/mL (≈ 0.234 µM) | > 2 µg/mL | 0.03 µg/mL (≈ 0.0561 µM) | 0.015 µg/mL (≈ 0.0281 µM) | 0.015 µg/mL (≈ 0.0281 µM) | C[C@]1(COc2ccc(N3CCC(Oc4ccc(OC(F)(F)F)cc4)CC3)cc2)Cn2cc([N+](=O)[O-])nc2O1 [Delamanid]
0.06 µg/mL (≈ 0.149 µM) | 0.03 µg/mL (≈ 0.0747 µM) | 0.04 µg/mL (≈ 0.0996 µM) | 0.25 µg/mL (≈ 0.623 µM) | 0.06 µg/mL (≈ 0.149 µM) | ≤ 0.008 µg/mL | 8 µg/mL (≈ 19.9 µM) | 0.015 µg/mL (≈ 0.0374 µM) | 0.25 µg/mL (≈ 0.623 µM) | 0.03 µg/mL (≈ 0.0747 µM) | 0.06 µg/mL (≈ 0.149 µM) | 0.03 µg/mL (≈ 0.0747 µM) | 0.06 µg/mL (≈ 0.149 µM) | 0.015 µg/mL (≈ 0.0374 µM) | 0.06 µg/mL (≈ 0.149 µM) | 0.03 µg/mL (≈ 0.0747 µM) | 0.5 µg/mL (≈ 1.25 µM) | 0.03 µg/mL (≈ 0.0747 µM) | 0.03 µg/mL (≈ 0.0747 µM) | COc1c(N2C[C@@H]3CCCN[C@@H]3C2)c(F)cc2c(=O)c(C(=O)O)cn(C3CC3)c12 [Moxifloxacin]
1 µg/mL (≈ 1.18 µM) | ≤ 0.004 µg/mL | ≤ 0.004 µg/mL | ≤ 0.004 µg/mL | ≤ 0.004 µg/mL | 0.125 µg/mL (≈ 0.148 µM) | 1 µg/mL (≈ 1.18 µM) | ≤ 0.004 µg/mL | 2 µg/mL (≈ 2.36 µM) | ≤ 0.004 µg/mL | ≤ 0.004 µg/mL | ≤ 0.004 µg/mL | > 2 µg/mL | ≤ 0.004 µg/mL | 0.008 µg/mL (≈ 0.00944 µM) | > 2 µg/mL | 2 µg/mL (≈ 2.36 µM) | ≤ 0.004 µg/mL | ≤ 0.004 µg/mL | CO[C@H]1/C=C/O[C@@]2(C)Oc3c(C)c(O)c4c(c3C2=O)C2=NC3(CCN(CC(C)C)CC3)NC2=C(NC(=O)/C(C)=C\C=C\[C@H](C)[C@H](O)[C@@H](C)[C@@H](O)[C@@H](C)[C@H](OC(C)=O)[C@@H]1C)C4=O [Rifabutin]

Continued, compound first:

SMILES | MIC (REMA) [1] | MIC (REMA) [2] | MIC (REMA) [3] | MIC (REMA) [4] | MIC (REMA) [5] | MIC (REMA) [6] | MIC (REMA) [7] | MIC (REMA) [8] | MIC (REMA) [9] | MIC (REMA) [10] | MIC (REMA) [11] | MIC (REMA) [12] | MIC (REMA) [13] | MIC (REMA) [14] | MIC (REMA) [15] | MIC (REMA) [16] | MIC (REMA) [17] | MIC (REMA) [18] | MIC (REMA) [19]
NCC[C@H](O)C(=O)N[C@@H]1C[C@H](N)[C@@H](O[C@H]2O[C@H](CN)[C@@H](O)[C@H](O)[C@H]2O)[C@H](O)[C@H]1O[C@H]1O[C@H](CO)[C@@H](O)[C@H](N)[C@H]1O [Amikacin] | 0.25 µg/mL (≈ 0.427 µM) | 0.125 µg/mL (≈ 0.213 µM) | 0.25 µg/mL (≈ 0.427 µM) | 0.25 µg/mL (≈ 0.427 µM) | > 16 µg/mL | > 16 µg/mL | 0.25 µg/mL (≈ 0.427 µM) | 0.25 µg/mL (≈ 0.427 µM) | > 16 µg/mL |  |  |  |  |  |  |  |  |  | 
CC[C@@H](CO)NCCN[C@@H](CC)CO [Ethambutol] | 0.5 µg/mL (≈ 2.45 µM) | 1 µg/mL (≈ 4.89 µM) | 0.5 µg/mL (≈ 2.45 µM) | 1 µg/mL (≈ 4.89 µM) | 1 µg/mL (≈ 4.89 µM) | 4 µg/mL (≈ 19.6 µM) |  |  |  | 4 µg/mL (≈ 19.6 µM) |  | 1 µg/mL (≈ 4.89 µM) | 1 µg/mL (≈ 4.89 µM) | 1 µg/mL (≈ 4.89 µM) | 1 µg/mL (≈ 4.89 µM) | 4 µg/mL (≈ 19.6 µM) |  | 0.5 µg/mL (≈ 2.45 µM) | 
NNC(=O)c1ccncc1 [Isoniazid] | > 8 µg/mL | > 8 µg/mL | 0.125 µg/mL (≈ 0.911 µM) |  |  | > 8 µg/mL | > 8 µg/mL | 0.03 µg/mL (≈ 0.219 µM) | > 8 µg/mL | ≤ 0.015 µg/mL |  | 0.06 µg/mL (≈ 0.438 µM) |  | > 8 µg/mL |  | > 8 µg/mL | > 8 µg/mL | 0.03 µg/mL (≈ 0.219 µM) | 
NC[C@H]1O[C@H](O[C@H]2[C@H](O)[C@@H](O[C@H]3O[C@H](CO)[C@@H](O)[C@H](N)[C@H]3O)[C@H](N)C[C@@H]2N)[C@H](O)[C@@H](O)[C@@H]1O [Kanamycin] | 0.5 µg/mL (≈ 1.03 µM) | 0.5 µg/mL (≈ 1.03 µM) | 0.5 µg/mL (≈ 1.03 µM) | 1 µg/mL (≈ 2.06 µM) | > 32 µg/mL | > 32 µg/mL | 0.5 µg/mL (≈ 1.03 µM) | 1 µg/mL (≈ 2.06 µM) | > 32 µg/mL | 1 µg/mL (≈ 2.06 µM) | 2 µg/mL (≈ 4.13 µM) | 2 µg/mL (≈ 4.13 µM) | 2 µg/mL (≈ 4.13 µM) | 1 µg/mL (≈ 2.06 µM) | 2 µg/mL (≈ 4.13 µM) | 1 µg/mL (≈ 2.06 µM) | 2 µg/mL (≈ 4.13 µM) | 1 µg/mL (≈ 2.06 µM) | 1 µg/mL (≈ 2.06 µM)
C[C@H]1COc2c(N3CCN(C)CC3)c(F)cc3c(=O)c(C(=O)O)cn1c23 [Levofloxacin] | 0.06 µg/mL (≈ 0.166 µM) | 0.06 µg/mL (≈ 0.166 µM) | 0.125 µg/mL (≈ 0.346 µM) |  | 0.25 µg/mL (≈ 0.692 µM) | 0.06 µg/mL (≈ 0.166 µM) |  | 0.125 µg/mL (≈ 0.346 µM) |  | 0.25 µg/mL (≈ 0.692 µM) | 0.25 µg/mL (≈ 0.692 µM) | 0.25 µg/mL (≈ 0.692 µM) | 0.25 µg/mL (≈ 0.692 µM) | 0.125 µg/mL (≈ 0.346 µM) | 0.125 µg/mL (≈ 0.346 µM) | 0.125 µg/mL (≈ 0.346 µM) |  | 0.25 µg/mL (≈ 0.692 µM) | 0.125 µg/mL (≈ 0.346 µM)
CC(=O)NC[C@H]1CN(c2ccc(N3CCOCC3)c(F)c2)C(=O)O1 [Linezolid] | 0.125 µg/mL (≈ 0.371 µM) | 0.25 µg/mL (≈ 0.741 µM) | 0.06 µg/mL (≈ 0.178 µM) | 0.25 µg/mL (≈ 0.741 µM) | 0.25 µg/mL (≈ 0.741 µM) | 0.03 µg/mL (≈ 0.0889 µM) | 0.25 µg/mL (≈ 0.741 µM) | 0.25 µg/mL (≈ 0.741 µM) | 0.25 µg/mL (≈ 0.741 µM) | 0.25 µg/mL (≈ 0.741 µM) | 0.5 µg/mL (≈ 1.48 µM) | 0.5 µg/mL (≈ 1.48 µM) | 0.25 µg/mL (≈ 0.741 µM) | 0.125 µg/mL (≈ 0.371 µM) | 0.25 µg/mL (≈ 0.741 µM) | 0.25 µg/mL (≈ 0.741 µM) | 0.25 µg/mL (≈ 0.741 µM) | 0.25 µg/mL (≈ 0.741 µM) | 0.125 µg/mL (≈ 0.371 µM)
CO[C@H]1/C=C/O[C@@]2(C)Oc3c(C)c(O)c4c(O)c(c(/C=N/N5CCN(C)CC5)c(O)c4c3C2=O)NC(=O)/C(C)=C\C=C\[C@H](C)[C@H](O)[C@@H](C)[C@@H](O)[C@@H](C)[C@H](OC(C)=O)[C@@H]1C [Rifampicin] | > 4 µg/mL |  | 0.03 µg/mL (≈ 0.0365 µM) |  | 0.015 µg/mL (≈ 0.0182 µM) | 2 µg/mL (≈ 2.43 µM) | > 4 µg/mL |  | > 4 µg/mL |  |  |  | > 4 µg/mL |  | 0.03 µg/mL (≈ 0.0365 µM) | > 4 µg/mL | > 4 µg/mL | 0.015 µg/mL (≈ 0.0182 µM) | 0.06 µg/mL (≈ 0.0729 µM)
